Laboratory results reported in patent US8673966B2, “ALDH-2 inhibitors in the treatment of addiction” (Gilead Sciences, Inc., priority 2011, dated 2014).
Several values for one entry are separate records, joined by “and”; a condition that tells them apart may be missing. Equal values may be shown once.

What was measured:
Type in all cases: biochemical
recombinant human ALDH2 = recombinant human ALDH2 (Homo sapiens (Human), UniProt P05091); assay: ALDH2 assay (NADH formation); conditions: 10 nM recombinant human ALDH2, 150 uM formaldehyde, 60 min pre-incubation; read-out: IC50 hALDH2
Protocol: Standard ALDH2 reaction mixtures contained 150 uM formaldehyde, 2.5 mM NAD^+, 10 mM MgCl2 and 10 nM recombinant human ALDH2 in 50 mM Hepes buffer, pH 7.4, 0.01% Tween 20 in a final volume of 50 ul using 384-well plates. After 60 min of pre-incubation of compound with ALDH2 and formaldehyde, the reaction was started by adding NAD+ and the reaction mixture was allowed to proceed for 90 minutes. Activity of the enzyme was determined by monitoring NADH formation using Perkin-Elmer Envision Reader with excitation and emission wavelengths set at 340 and 460 nm, respectively.
(§1) Note: IC50 refers to the concentration of a compound that inhibits a reaction by 50%. In the case of competitive inhibition, IC50=2Ki when the substrate is present at the Km concentration, as per the relationship: Ki=IC50/[1+(substrate concentration/Km)].

hMAO-A = hMAO-A (Homo sapiens (Human), UniProt P21397); assay: MAO-A assay (luminogenic MAO substrate); conditions: microsome contained MAO-A, 160 uM substrate, 20 min pre-incubation; unit inferred
Protocol: (§2) MAO assays included luminogenic MAO substrate, reaction buffers, Luciferin Detection and the reconstitution buffer with esterase. Standard MAO reaction mixtures included microsome contained MAO-A (2 ug) or MAO-B (10 ug), 160 uM substrate for MAO-A or 16 uM substrate for MAO-B, MAO-A buffer (100 mM Hepes buffer, pH 7.5, 5% glycerol) or MAO-B buffer (100 mM Hepes, pH 7.5, 5% glycerol, 10% dimethyl sulfoxide) in a final volume of 30 ul. After 20 minutes of pre-incubation of the enzyme with compounds, the reaction was initiated by adding enzyme substrate and the reaction was allowed to proceed for 60 minutes. Reconstituted Luciferin Detection Reagent (30 ul) was then added is added to simultaneously stop the MAO reaction and convert the methyl ester derivative to luciferin and produce light. The amount of light produced is directly proportional to the activity of MAO. The mixtures were further incubated for 20 minutes and activity of the enzyme was determined using Perkin-Elmer Envision Reader.
as §1

hMAO-B = hMAO-B (Homo sapiens (Human), UniProt P27338); assay: MAO-B assay (luminogenic MAO substrate); conditions: microsome contained MAO-B, 16 uM substrate, 20 min pre-incubation; unit inferred
Protocol: as §2, §1

Chain of hMAO-B (P27338 whole entry): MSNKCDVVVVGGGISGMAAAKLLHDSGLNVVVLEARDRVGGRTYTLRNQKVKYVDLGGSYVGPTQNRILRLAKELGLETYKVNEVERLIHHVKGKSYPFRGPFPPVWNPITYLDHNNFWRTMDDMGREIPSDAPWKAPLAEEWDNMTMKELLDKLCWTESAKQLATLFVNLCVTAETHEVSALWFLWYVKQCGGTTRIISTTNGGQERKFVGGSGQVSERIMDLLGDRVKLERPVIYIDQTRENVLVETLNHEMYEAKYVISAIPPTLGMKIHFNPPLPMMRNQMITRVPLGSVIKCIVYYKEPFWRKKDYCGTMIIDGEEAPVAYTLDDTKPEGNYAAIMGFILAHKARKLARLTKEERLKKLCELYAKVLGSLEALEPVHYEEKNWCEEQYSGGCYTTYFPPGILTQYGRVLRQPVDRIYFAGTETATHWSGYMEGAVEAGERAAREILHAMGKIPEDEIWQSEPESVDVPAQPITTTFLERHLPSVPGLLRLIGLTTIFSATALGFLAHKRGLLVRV
Chain of hMAO-A (P21397 whole entry): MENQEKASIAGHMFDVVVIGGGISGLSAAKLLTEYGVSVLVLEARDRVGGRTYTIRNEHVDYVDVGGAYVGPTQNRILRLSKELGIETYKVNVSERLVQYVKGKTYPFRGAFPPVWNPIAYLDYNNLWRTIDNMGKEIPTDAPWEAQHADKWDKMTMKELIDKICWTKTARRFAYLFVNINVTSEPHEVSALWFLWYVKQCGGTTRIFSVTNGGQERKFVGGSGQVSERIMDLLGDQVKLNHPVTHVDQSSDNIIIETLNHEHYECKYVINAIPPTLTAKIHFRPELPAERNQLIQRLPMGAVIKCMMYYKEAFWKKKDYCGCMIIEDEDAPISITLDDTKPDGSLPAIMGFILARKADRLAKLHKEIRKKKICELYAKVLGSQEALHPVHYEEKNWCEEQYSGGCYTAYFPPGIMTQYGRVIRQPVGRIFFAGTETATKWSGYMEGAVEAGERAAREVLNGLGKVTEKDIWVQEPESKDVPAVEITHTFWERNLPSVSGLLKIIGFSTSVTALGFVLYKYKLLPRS
Chain of recombinant human ALDH2 (P05091 18-517): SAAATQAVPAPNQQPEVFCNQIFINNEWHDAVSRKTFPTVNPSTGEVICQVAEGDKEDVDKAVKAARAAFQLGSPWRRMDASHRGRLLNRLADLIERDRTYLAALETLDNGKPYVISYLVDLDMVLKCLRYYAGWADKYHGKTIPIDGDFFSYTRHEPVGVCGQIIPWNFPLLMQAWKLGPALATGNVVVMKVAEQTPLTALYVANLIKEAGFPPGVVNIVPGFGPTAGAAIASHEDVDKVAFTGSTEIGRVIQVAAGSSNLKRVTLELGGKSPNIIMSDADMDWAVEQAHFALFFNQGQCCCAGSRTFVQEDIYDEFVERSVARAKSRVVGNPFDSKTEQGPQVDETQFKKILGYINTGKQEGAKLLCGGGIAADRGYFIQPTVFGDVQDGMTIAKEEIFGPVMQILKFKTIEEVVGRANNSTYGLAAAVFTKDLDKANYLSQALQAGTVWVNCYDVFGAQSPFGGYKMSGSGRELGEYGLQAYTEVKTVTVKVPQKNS

IC50 (recombinant human ALDH2) | IC50 (hMAO-A) [nM] | IC50 (hMAO-B) [nM] | Structure (SMILES)
6 nM | > 130000 | > 130000 | CC1(C(=O)N2CC(C#Cc3ccc4c(=O)c(-c5ccc(NS(C)(=O)=O)cc5)coc4c3)C2)COC1 [N-(4-(7-((1-(3-methyloxetane-3-carbonyl)azetidin-3-yl)ethynyl)-4-oxo-4H-chromen-3-yl)phenyl)methanesulfonamide]
4 nM | > 130000 | > 130000 | CS(=O)(=O)Nc1ccc(-c2coc3cc(C#CC4CN(C(=O)C5CCC5)C4)ccc3c2=O)cc1 [N-(4-(7-((1-(cyclobutanecarbonyl)azetidin-3-yl)ethynyl)-4-oxo-4H-chromen-3-yl)phenyl)methanesulfonamide]
21 nM | > 130000 | > 130000 | CS(=O)(=O)Nc1ccc(-c2coc3cc(C#Cc4cccnc4)ccc3c2=O)cc1 [N-(4-(4-oxo-7-(pyridin-3-ylethynyl)-4H-chromen-3-yl)phenyl)methanesulfonamide]
5 nM | 110000 | > 130000 | CC(C)(C)OC(=O)NC1(C(=O)N2CC(C#Cc3ccc4c(=O)c(-c5ccc(NS(C)(=O)=O)cc5)coc4c3)C2)CC1 [tert-butyl 1-(3-((3-(4-(methylsulfonamido)phenyl)-4-oxo-4H-chromen-7-yl)ethynyl)azetidine-1-carbonyl)cyclopropylcarbamate]
6 nM | > 130000 | > 130000 | CS(=O)(=O)Nc1ccc(-c2coc3cc(C#CC4CN(C(=O)C5CC(F)(F)C5)C4)ccc3c2=O)cc1 [N-(4-(7-((1-(3,3-difluorocyclobutanecarbonyl)azetidin-3-yl)ethynyl)-4-oxo-4H-chromen-3-yl)phenyl)methanesulfonamide]
9 nM | > 130000 | > 130000 | CS(=O)(=O)Nc1ccc(-c2coc3cc(C#CC4CN(C(=O)OC5CCCC5)C4)ccc3c2=O)cc1 [cyclopentyl-3-((3-(4-(methylsulfonamido)phenyl)-4-oxo-4H-chromen-7-yl)ethynyl)azetidine-1-carboxylate]
95 nM | > 86500 | > 130000 | Cn1cnc(C#Cc2ccc3c(=O)c(-c4ccc(NS(C)(=O)=O)cc4)coc3c2)c1 [N-(4-(7-((1-methyl-1H-imidazol-4-yl)ethynyl)-4-oxo-4H-chromen-3-yl)phenyl)methanesulfonamide]
2180 nM | > 91000 | > 91000 | CC(C)(O)C#Cc1ccc2c(=O)c(-c3ccc(NS(C)(=O)=O)cc3)coc2c1 [N-(4-(7-(3-hydroxy-3-methylbut-1-ynyl)-4-oxo-4H-chromen-3-yl)phenyl)methanesulfonamide]
15 nM | > 130000 | > 130000 | CC(O)C(=O)N1CC(C#Cc2ccc3c(=O)c(-c4ccc(NS(C)(=O)=O)cc4)coc3c2)C1 (stereo not drawn) [N-(4-(7-((1-(2-hydroxypropanoyl)azetidin-3-yl)ethynyl)-4-oxo-4H-chromen-3-yl)phenyl)methanesulfonamide]
57.7 nM | > 13000 | > 13000 | CS(=O)(=O)Nc1ccc(-c2coc3cc(C#CC4CC4)ccc3c2=O)cc1 [N-(4-(7-(cyclopropylethynyl)-4-oxo-4H-chromen-3-yl)phenyl)methanesulfonamide]
266 nM | > 130000 | > 94400 | CS(=O)(=O)Nc1ccc(-c2coc3cc(C#CC4CNC4)ccc3c2=O)cc1 [N-(4-(7-(azetidin-3-ylethynyl)-4-oxo-4H-chromen-3-yl)phenyl)methanesulfonamide]
6 nM | > 130000 | > 130000 | CC(C)(C)OC(=O)NC1(C(=O)N2CC(C#Cc3ccc4c(=O)c(-c5ccc(NS(C)(=O)=O)cc5)coc4c3)C2)CCC1 [tert-butyl 1-(3-((3-(4-(methylsulfonamido)-phenyl)-4-oxo-4H-chromen-7-yl)ethynyl)azetidine-1-carbonyl)-cyclobutylcarbamate]
329 nM | > 13000 | > 13000 | CS(=O)(=O)Nc1ccc(-c2coc3cc(C#Cc4ccccc4)ccc3c2=O)cc1 [N-(4-(4-oxo-7-(phenylethynyl)-4H-chromen-3-yl)phenyl)methanesulfonamide]
5 nM | > 130000 | > 130000 | CC1(O)CC(C(=O)N2CC(C#Cc3ccc4c(=O)c(-c5ccc(NS(C)(=O)=O)cc5)coc4c3)C2)C1 (stereo not drawn) [N-(4-(7-((1-(3-hydroxy-3-methylcyclobutane-carbonyl)azetidin-3-yl)ethynyl)-4-oxo-4H-chromen-3-yl)phenyl)methanesulfonamide]
64 nM | 46900 | > 130000 | CN(C)CCC(=O)N1CC(C#Cc2ccc3c(=O)c(-c4ccc(NS(C)(=O)=O)cc4)coc3c2)C1 [N-(4-(7-((1-(3-(dimethylamino)propanoyl)azetidin-3-yl)ethynyl)-4-oxo-4H-chromen-3-yl)phenyl)methanesulfonamide]
16 nM | > 130000 | > 130000 | CC(C)(O)C(=O)N1CC(C#Cc2ccc3c(=O)c(-c4ccc(NS(C)(=O)=O)cc4)coc3c2)C1 [N-(4-(7-((1-(2-hydroxy-2-methylpropanoyl)-azetidin-3-yl)ethynyl)-4-oxo-4H-chromen-3-yl)phenyl)methanesulfonamide]
90 nM | > 130000 | > 130000 | CS(=O)(=O)Nc1ccc(-c2coc3cc(C#Cc4ccccn4)ccc3c2=O)cc1 [N-(4-(4-oxo-7-(pyridin-2-ylethynyl)-4H-chromen-3-yl)phenyl)methanesulfonamide]
15 nM | > 130000 | > 130000 | CS(=O)(=O)Nc1ccc(-c2coc3cc(C#CC4CN(C(=O)CO)C4)ccc3c2=O)cc1 [N-(4-(7-((1-(2-hydroxyacetyl)azetidin-3-yl)ethynyl)-4-oxo-4H-chromen-3-yl)phenyl)methanesulfonamide]
47 nM | > 130000 | > 130000 | COCC#Cc1ccc2c(=O)c(-c3ccc(NS(C)(=O)=O)cc3)coc2c1 [N-(4-(7-(3-methoxyprop-1-ynyl)-4-oxo-4H-chromen-3-yl)phenyl)methanesulfonamide]
9 nM | > 130000 | > 130000 | CC(C)(C)OC(=O)N1CC(C#Cc2ccc3c(=O)c(-c4ccc(NS(C)(=O)=O)cc4)coc3c2)C1 [tert-butyl 3-((3-(4-(methylsulfonamido)phenyl)-4-oxo-4H-chromen-7-yl)ethynyl)azetidine-1-carboxylate]
96 nM | > 130000 | > 130000 | COCC#Cc1ccc2c(=O)c(-c3ccc(NS(=O)(=O)C4CC4)cc3)coc2c1 [N-(4-(7-(3-methoxyprop-1-ynyl)-4-oxo-4H-chromen-3-yl)phenyl)cyclopropanesulfonamide]
< 4.9 nM | > 130000 | 365 | Cn1cncc1C#Cc1ccc2c(=O)c(-c3ccc(NS(C)(=O)=O)cc3)coc2c1 [N-(4-(7-((1-methyl-1H-imidazol-5-yl)ethynyl)-4-oxo-4H-chromen-3-yl)phenyl)methanesulfonamide]
386 nM and 156 nM | > 130000 | > 130000 | CS(=O)(=O)Nc1ccc(-c2coc3cc(C#CC4(O)CCCC4)ccc3c2=O)cc1 [N-(4-(7-((1-hydroxycyclopentyl)ethynyl)-4-oxo-4H-chromen-3-yl)phenyl)methanesulfonamide]
1710 nM | > 130000 | > 130000 | CS(=O)(=O)Nc1ccc(-c2coc3cc(C#CC4(O)CCCCC4)ccc3c2=O)cc1 [N-(4-(7-((1-hydroxycyclohexyl)ethynyl)-4-oxo-4H-chromen-3-yl)phenyl)methanesulfonamide]
2.3 nM | > 130000 | > 130000 | CN(C(=O)OC(C)(C)C)C1(C(=O)N2CC(C#Cc3ccc4c(=O)c(-c5ccc(NS(C)(=O)=O)cc5)coc4c3)C2)CC1 [tert-butyl (1-(3-((3-(4-(methylsulfonamido)-phenyl)-4-oxo-4H-chromen-7-yl)ethynyl)azetidine-1-carbonyl)cyclopropyl)-methylcarbamate]
7 nM | > 130000 | > 130000 | CC(C)n1cncc1C#Cc1ccc2c(=O)c(-c3ccc(NS(C)(=O)=O)cc3)coc2c1 [N-(4-(7-((1-isopropyl-1H-imidazol-5-yl)ethynyl)-4-oxo-4H-chromen-3-yl)phenyl)methanesulfonamide]
15 nM | > 130000 | > 130000 | Cc1ncc(C#Cc2ccc3c(=O)c(-c4ccc(NS(C)(=O)=O)cc4)coc3c2)n1C [N-(4-(7-((1,2-dimethyl-1H-imidazol-5-yl)ethynyl)-4-oxo-4H-chromen-3-yl)phenyl)methanesulfonamide]
